Measurements published in PMC4520450, “Procyanidins Negatively Affect the Activity of the Phosphatases of Regenerating Liver” (PLoS ONE, 2015).
Where two headings read alike, the source gives them in different places. Each block holds one compound with its values, some of them ahead of it.

How the values were obtained:
PRL-3 = biological target: T1, PRL-3 (Homo sapiens, UniProt O75365); assay: DiFMUP phosphatase activity assay for PRLs; format: biochemical
T1 construct: His-TEV (cleaved yes); made in house
Description: Biochemical phosphatase activity measurements were carried out in the presence of different concentrations of various polyphenols, compounds 1–11 (Fig 1), using recombinant PRL-3 and 6,8-difluoro-4-methylumbelliferyl phosphate (DiFMUP) as a fluorogenic substrate (see the experimental procedures). We observed that the monomeric epicatechins EGC and EC inhibit PRL-3 only weakly, with a slightly better activity of EGC, which bears three hydroxyl groups at the B-ring. […] In general, as a basic structure activity-relationship the following trend was observed: a higher number of hydroxyl groups at the B-ring increased the activity slightly. […] The influence of the stereochemistry at C(2)–C(3) was studied by using GCG (the trans-epimer of EGCG).
(§1) Fig 2 Effect of polyphenolic compounds 8 (A), 9 (B), 10 (C) and 11 (D) on the phosphatase activity of PRL-1, PRL-2, PRL-3, PP1, and PP2A. Proteins were incubated for 30 min with 0–1000 μM of the corresponding procyandin 8–11. Phosphatase activity was measured in the presence of DiFMUP at 25°C using the concentration corresponding to the KM of each protein. The KM for PRLs was determined separately (PRL-3 = 21 μM, PRL-2 and PRL-1 = 24 μM). The KM for PP1 (91 μM) and for PP2A (100 μM) was taken from the literature. Protein concentrations are 50 nM for all PRLs and 2 mU for PP1 and 0.05 U for PP2A (see the Experimental Procedures). Phosphatase activity in the absence of inhibitors was set as 100%. Data represent means ± standard errors of the mean (n = 3–5).
(§2) DiFMUP assay for PRLs: In a final reaction volume of 100 μL the PRLs (50 nM final concentration) were incubated with decreasing concentrations of the inhibitory polyphenols for 30 minutes at 25°C. The buffer conditions were 108 mM TrisCl (pH 7.5), Triton 0.05% (v/v), DTT 27.0 mM, NaCl 811 mM. After the incubation time 20 μL DiFMUP (6,8-Difluoro-4-methylumbelliferyl phosphate) was added to reach a final concentration of 21 μM for PRL-3 and 24 μM for PRL-1 and PRL-2. On a Tecan safire2 (Tecan, Salzburg, Austria) plate reader dephosphorylation of the substrate to its fluorescent product was monitored by following the emission at 358 nm with excitation at 452 nm for 20 minutes. All measurements were done in triplicates, and the experiments were repeated at least three times. The slopes of the initial phases were obtained by linear regression of the data points. The normalized reaction rates were plotted versus the log of the inhibitor concentrations and the IC50 values were obtained by fitting the curves using the one site competition model of GraphPad Prism (GraphPad Software, Version 5). KM values were determined by measuring reaction kinetics of substrate dilution series. Initial velocities were plotted against DiFMUP concentration and the data was analyzed by Michaelis-Menten kinetics curve fitting of GraphPad Prism. A final DMSO content of 0.4% was maintained for the monomeric catechins. Due to the high water solubility of the procyanidins DMSO was not required and measurements were done in assay buffer only.

PRL-1 = biological target: T2, PRL-1 (Homo sapiens, UniProt Q93096); assay: DiFMUP phosphatase activity assay for PRLs; format: biochemical
T2 construct: His-TEV (cleaved yes); made in house
T2 sequence (Q93096 1-173): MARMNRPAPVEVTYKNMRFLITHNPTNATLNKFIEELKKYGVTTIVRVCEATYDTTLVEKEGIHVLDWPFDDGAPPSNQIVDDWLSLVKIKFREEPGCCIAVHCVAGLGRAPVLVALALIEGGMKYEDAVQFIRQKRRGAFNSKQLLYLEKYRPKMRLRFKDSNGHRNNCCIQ
Description: as §1, §2

PP2A = biological target: T3, PP2A (Homo sapiens, UniProt P67775); assay: DiFMUP assay for PP2A; format: biochemical; details: 0.05 U PP2A, 30 min preincubation, 25°C, no BSA, mean ± SEM (n = 3–5), read-out: IC50 (Ki) PP2A
T3 construct: purified from human red blood cells; purchased Merck Millipore; host or cells: human red blood cells
Description: as §1
(§3) BSA, which is usually supplemented to the assay buffer for stabilizing the PPs was however excluded, as BSA is known to form complexes with polyphenolic compounds [40–42] and thus would decrease the concentrations of the inhibitor in the assay. […] In contrast, the phosphatase activity of PP2A was suppressed to a much lesser extent with weak (for trimer 9 and hexamer 11) and strong statistical significance (dimer 8 and tetramer 10). Thus our results corroborate the data reported previously.
Chemicals and vendors were as follows: Synthesis of Procyanidins (dimer to dodecamer) was done as previously reported. EGCG, EGC, ECG and EC were synthesized as previously reported or purchased from Sigma. (+)-Catechin and 3-(4,5-dimethylthiazol-2-yl)-2,5-diphenyltetrazolium bromide (MTT) were obtained from Sigma. 6,8-Difluoro-4-Methylumbelliferyl Phosphate (DiFMUP), propidium iodide and calcein AM were from lifescience technologies. Cell dissociation solution (10X) was purchased from amsbio. PP1c (recombinant from E. coli) was purchased from NewEngland Biolabs and PP2A (purified from human red blood cells, contains different subunits according to manufacturer) from Merck Millipore. Transwell plates (BRANDplates) and insert stripes for the migration assay were purchased from Brand GmbH. Black 96 well plates (96F Nunclon Delta) were purchased from Thermo Scientific. Transparent 96 well assay plates with UV transparent bottom were purchased from Corning Inc. Wound healing experiments were carried out with μ-dish 35 mm culture inserts, which were purchased from Ibidi.
DiFMUP assay for PP2A: In a final reaction volume of 100 μL PP2A (0.05 U final concentration, according to manufacturer’s instructions) were incubated with decreasing concentrations of the inhibitory polyphenols for 30 minutes at 25°C. The assay buffer contained 50 mM TrisCl (pH 7.5), 250 mM NaCl, 0.1 mM EDTA, 1 mM MnCl2, and 2 mM dithiothreitol (DTT). […] Monitoring of the fluorescent dephosphorylation product was monitored and data analyzed as described above.

PP1 = biological target: T4, PP1 (Oryctolagus cuniculus, UniProt P62139); assay: DiFMUP assay for PP1; format: biochemical
T4 construct: purchased NewEngland Biolabs; host or cells: E. coli
Description: as §1, §3
DiFMUP assay for PP1: In a final reaction volume of 100 μL PP1c (2 mU final concentration, according to manufacturer’s instructions) were incubated with decreasing concentrations of the inhibitory polyphenols for 30 minutes at 25°C. The assay buffer contained 25 mM imidazole (pH 7.4), 1 mM dithiothreitol (DTT), and 50 mM NaCl. Bovine serum albumin (BSA) was excluded due to possible binding of the polyphenolic compounds. After the incubation time 20 μL DiFMUP (6,8-Difluoro-4-methylumbelliferyl phosphate) was added to reach a final concentration of 100 μM. Monitoring of the fluorescent dephosphorylation product was monitored and data analyzed as described above.

PRL-2 = biological target: T5, PRL-2 (Homo sapiens, UniProt Q12974); assay: DiFMUP phosphatase activity assay for PRLs; format: biochemical; details: 50 nM PRL-2, 30 min preincubation, 25°C, 24 μM DiFMUP; mean ± SEM (n = 3–5); read-out: IC50 (Ki) PRL-2
T5 construct: His-TEV (cleaved yes); made in house
T5 sequence (Q12974 1-167): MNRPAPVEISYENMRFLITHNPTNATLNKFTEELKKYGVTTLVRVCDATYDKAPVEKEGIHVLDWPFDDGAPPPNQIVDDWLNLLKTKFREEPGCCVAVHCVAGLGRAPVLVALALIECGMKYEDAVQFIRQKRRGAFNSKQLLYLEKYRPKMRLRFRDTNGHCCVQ
Description: as §1, §2

protein phosphatase-1 = biological target: protein phosphatase-1; parameters: method as in PMID 22260360; details: cited from earlier work
[1] = system: PRL-3 overexpressing HEK293 cells; assay: Wound healing assay; format: cell-based; details: 35 μM analog 3, PRL-3 overexpressing cells
Description: (§4) To study if procyanidin C2 is able to inhibit PRL-1 and PRL-3 in cells, HEK293 cells were treated in a wound-healing assay (see the experimental procedures). […] As a control the empty vector cell line was again utilized. […] The migration speed was for all cell lines similar when treated with 50 μM of 9. To further corroborate these findings we performed additionally a transwell assay as an alternative way to study cell migration.
(§5) Fig 6 Wound healing abilities of PRL-1 or PRL-3 overexpressing or empty vector control HEK293 cell lines were analyzed in the presence of compound 9 or medium only. Cells were seeded at a concentration of 800,000 cells per insert and procyanidin C2 (9) was added at a concentration of 25 and 50 μM. A) Pictures of the wound gaps were taken at 0 h and 7 h for both conditions (with and without treatment). B) Quantification of the wound healing experiment. Speed of migration is shown for combined data from different replicates, as mean ± SD (n = 38–88). Two-sided t-tests with Welsh correction were performed for p < 0.05. ns = not significant;***: < 0.001; **: < 0.01; *: < 0.05. C) Effect of polyphenolic compounds in a transwell assay on the cell migration of HEK293 empty vector and PRL-3 overexpressing cell lines. Cells were seeded at a concentration of 100,000 cells per insert and procyanidin C2 (9) was added at a final concentration of 25 and 50 μM. Migration was allowed for 16 h before harvesting and staining with calcein AM for fluorescent readout. Mean ± SD (n = 60–72) is shown for combined data from different replicates. Two-sided t-tests with Welsh correction were performed for p < 0.05. ns = not significant. D) Quantification of wound healing experiment including blocking PRL-1 and PRL-3 with analog 3. Speed of migration is shown for combined data from different replicates, as mean ± SD (n = 63–82). Two-sided t-tests with Welsh correction were performed for p < 0.05.
(§6) Wound healing experiments were carried out with μ-dish 35mm culture inserts. 8 × 10^5 cells/mL of the respective HEK293 stable cell lines were seeded into each of the two insert wells and allowed to settle for 40 h in the presence of tetracycline. Then the inserts were gently removed and growth medium supplemented with 7.5% FBS and 0.1% tetracycline was added as well as procyanidin C2 (9) or procyanidin B3 (8) at a final concentration of 25, 50 or 75 μM. For the experiment including blocking of PRLs with analog 3, the latter one was added at a final concentration of 35 μM, followed by addition of procyanidin C2 (9) at either 25 or 50 μM final concentration. Negative controls contained growth medium with FBS only. Pictures of the wound gap were taken at 0 h and 7 h time points. A Zeiss Cellobserver HS microscope was used with 10 × magnitude. For data analysis, in each experiment, the distances between both cell fronts at time point 0 h and 7 h were measured by taking 20 different measuring points. Then all the measurements from different replicates (4) for each experiment were combined and analyzed by t-test using Welsh correction in GraphPad Prism. Data are shown with 99% confidence intervals.

[2] = system: PRL-1 overexpressing HEK293 cells; assay: Wound healing assay; format: cell-based; details: 35 μM analog 3, PRL-1 overexpressing cells
Description: as §4, §5, §6

[3] = 50 nM PRL-3, 30 min preincubation, 25°C, 21 μM DiFMUP, mean ± SEM (n = 3–5), read-out: IC50 (Ki) PRL-3

T1 sequence (O75365 whole entry): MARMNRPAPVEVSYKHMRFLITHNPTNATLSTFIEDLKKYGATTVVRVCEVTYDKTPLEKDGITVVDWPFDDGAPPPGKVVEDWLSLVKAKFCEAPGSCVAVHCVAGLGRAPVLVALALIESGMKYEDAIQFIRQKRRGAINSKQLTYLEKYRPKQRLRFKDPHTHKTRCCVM
T4 sequence (P62139 whole entry): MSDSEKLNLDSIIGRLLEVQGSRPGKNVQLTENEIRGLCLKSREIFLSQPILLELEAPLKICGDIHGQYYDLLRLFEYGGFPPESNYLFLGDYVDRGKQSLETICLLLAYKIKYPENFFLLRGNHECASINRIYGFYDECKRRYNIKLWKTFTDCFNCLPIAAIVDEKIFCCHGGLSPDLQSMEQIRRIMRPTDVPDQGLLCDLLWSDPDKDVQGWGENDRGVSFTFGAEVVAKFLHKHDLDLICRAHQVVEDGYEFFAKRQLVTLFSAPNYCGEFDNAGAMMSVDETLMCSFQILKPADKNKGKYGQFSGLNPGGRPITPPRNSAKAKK
T3 sequence (P67775 whole entry): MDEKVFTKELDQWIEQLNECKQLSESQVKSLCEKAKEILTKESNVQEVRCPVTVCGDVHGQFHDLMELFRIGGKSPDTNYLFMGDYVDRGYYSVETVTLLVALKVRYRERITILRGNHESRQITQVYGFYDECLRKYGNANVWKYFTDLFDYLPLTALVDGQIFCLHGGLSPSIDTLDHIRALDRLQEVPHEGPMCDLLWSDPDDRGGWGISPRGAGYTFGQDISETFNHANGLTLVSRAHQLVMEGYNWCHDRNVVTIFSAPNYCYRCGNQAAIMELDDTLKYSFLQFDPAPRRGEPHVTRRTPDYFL
T3 sequence (P30153 2-589 partner limits assumed): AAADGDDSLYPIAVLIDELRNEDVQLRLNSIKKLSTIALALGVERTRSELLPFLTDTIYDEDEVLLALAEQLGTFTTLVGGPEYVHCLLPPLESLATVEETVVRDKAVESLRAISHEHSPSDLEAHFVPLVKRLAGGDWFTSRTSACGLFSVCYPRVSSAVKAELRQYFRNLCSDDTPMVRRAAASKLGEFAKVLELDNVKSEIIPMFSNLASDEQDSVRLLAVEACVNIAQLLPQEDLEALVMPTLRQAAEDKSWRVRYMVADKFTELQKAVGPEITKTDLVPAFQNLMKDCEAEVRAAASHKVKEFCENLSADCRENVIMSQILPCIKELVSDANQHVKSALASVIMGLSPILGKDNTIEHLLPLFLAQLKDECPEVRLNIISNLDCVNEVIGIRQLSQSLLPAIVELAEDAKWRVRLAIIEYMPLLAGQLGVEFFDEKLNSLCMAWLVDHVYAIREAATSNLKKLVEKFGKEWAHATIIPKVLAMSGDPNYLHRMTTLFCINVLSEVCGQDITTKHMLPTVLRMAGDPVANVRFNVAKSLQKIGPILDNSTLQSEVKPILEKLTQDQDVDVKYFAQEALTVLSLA

Compound: Oc1cc(O)c2c(c1)O[C@H](c1cc(O)c(O)c(O)c1)[C@H](O)C2 [EGC (3), (–)-epigallocatechin]
- IC50 (PRL-3; [3]): 285 ± 3.7 µM

Compound: O=C(O[C@H]1Cc2c(O)cc(O)cc2O[C@@H]1c1cc(O)c(O)c(O)c1)c1cc(O)c(O)c(O)c1 [GCG (5)]
- IC50 (PRL-3; [3]): 113 ± 10.7 µM

Compound: O=C(O)c1cc(O)c(O)c(O)c1 [Gallic acid (7), Gallic acid]
- IC50 (PRL-3): > 1000 µM
- inhibition of PRL-3 (PRL-3; up to 1000 μM): did not show any inhibition

Compound: Oc1cc(O)c2c(c1)O[C@H](c1ccc(O)c(O)c1)[C@@H](O)[C@@H]2c1c(O)cc(O)c2c1O[C@H](c1ccc(O)c(O)c1)[C@@H](O)[C@@H]2c1c(O)cc(O)c2c1O[C@H](c1ccc(O)c(O)c1)[C@@H](O)[C@@H]2c1c(O)cc(O)c2c1O[C@H](c1ccc(O)c(O)c1)[C@@H](O)[C@@H]2c1c(O)cc(O)c2c1O[C@H](c1ccc(O)c(O)c1)[C@@H](O)[C@@H]2c1c(O)cc(O)c2c1O[C@H](c1ccc(O)c(O)c1)[C@@H](O)C2 [Hexamer (11)]
- IC50 (PP2A): 32.5 ± 4.8 µM
- IC50 (PRL-3; [3]): 12.5 ± 1.8 µM
- PP1 potency of hexamer compared to tetramer 10 (PP1): increased only about two-fold
- IC50 (PP1; 2 mU PP1c, 30 min preincubation, 25°C, DiFMUP, no BSA, mean ± SEM (n = 3–5), read-out: IC50 (Ki) PP1): 7 ± 2.3 µM
- IC50 (PRL-2): 10 ± 0.4 µM

Compound: O=C(OC[C@H]1O[C@@H](OC(=O)c2cc(O)c(O)c(O)c2)[C@H](OC(=O)c2cc(O)c(O)c(O)c2)[C@@H](OC(=O)c2cc(O)c(O)c(O)c2)[C@@H]1OC(=O)c1cc(O)c(O)c(O)c1)c1cc(O)c(O)c(O)c1 [PGG, 1,2,3,4,6-penta-O-galloyl-beta-D-glucose, reference compound]
- IC50 (protein phosphatase-1): 0.4 µM

Compound: Oc1cc(O)c2c(c1)O[C@H](c1cc(O)c(O)c(O)c1)[C@H](O)C2 [analog 3, reference compound]
- migration speed, wound healing [1]: fell back to the baseline level of the empty vector cell line
- migration speed, wound healing [2]: a bit lower than the baseline

Further lines, results first:

- IC50 (PRL-3; [3]): 456 ± 65.6 µM
- IC50 toward PRL-1 relative to IC50 values of the oligomers (PRL-1): 50 fold
- IC50 toward PRL-1 relative to PRL-3 (PRL-1): about three times lower
- IC50 (PRL-1; 50 nM PRL-1, 30 min preincubation, 25°C, 24 μM DiFMUP, mean ± SEM (n = 3–5), read-out: IC50 (Ki) PRL-1): 158 ± 1.2 µM
Compound: Oc1cc(O)c2c(c1)O[C@H](c1ccc(O)c(O)c1)[C@@H](O)C2 [(+)-Catechin (6), (+)-Catechin]

- IC50 (PRL-3; [3]): 514 ± 68.2 µM
Compound: Oc1cc(O)c2c(c1)O[C@H](c1ccc(O)c(O)c1)[C@H](O)C2 [EC (1), (–)-epicatechin]

- increase in PRL-3 inhibition of 3-gallate ester compared to non-gallate (2 vs 1, 4 vs 3) (PRL-3): about two-fold increase
- IC50 (PRL-3; [3]): 181 ± 13.6 µM
Compound: O=C(O[C@@H]1Cc2c(O)cc(O)cc2O[C@@H]1c1ccc(O)c(O)c1)c1cc(O)c(O)c(O)c1 [ECG (2), (–)-epicatechin-3-O-gallate]
